Experimental data published in patent US7794835B2, “Fixing solution, capsule structure, fixing method, fixing device and image forming apparatus” (Ricoh Company, Ltd., priority 2004, dated 2010).

Test: acute oral toxicity test LD50 (50 percent lethal dose)
Format: in vivo, rats or guinea pigs
Details: worked out from LD50 in oral administration
Description: A fixing solution according to the present invention includes aliphatic ester, held in a soluble state with respect to a solvent and having solubility or a swelling property with respect to a resin included in a toner. Thereby, a fixing solution, from which generation of odor is reduced, and by which a not-yet-fixed toner can be rapidly fixed, can be obtained. The aliphatic ester is applied as a softener softening a toner by dissolving or swelling the resin included in the toner. ‘Held in a soluble state’ means as being held in a size on the order of a molecule size on the order of […]. The aliphatic ester preferably has acute oral toxicity test LD50 larger than 3 g/kg in a viewpoint of a safety of humans.
For the first problem, LD50 is applied as a safety index, and a fixing solution was produced in such a manner that each of a solvent and a solute has LD50 not less than 3.0 g/kg. LD50 is a toxicity index of American Industrial Hygiene Association, and means a 50 percent lethal dose. This corresponds to an amount such that, 50% of the number of individuals are dead when a certain amount of test solute or a sample to test is given to rats or guinea pigs. […] Since this means that a 50% lethal dose for a weight of individuals of 1 kg is not less than 15 g, a presumable lethal dose of silicone oil for a human of 65 kg is not less than […] accordingly. […]
In the case of dimethylsiloxane, the “presumable lethal dose for a human of 65 kg” value is reported as “not less than 945 g”.

Test: not given
Details: acute oral toxicity; cited from earlier work
In the case of `CCCCCCCCCCCC(=O)OCCCCCC` [hexyl laureate], the LD50 is given as 8000 mg/kg. In the case of `[Cl-].[Na+]` [salt, reference compound], the LD50 is listed as 3000 mg/kg. For `CCCCCCCCCCCCCCCC(=O)OCC(C)C` [isobutyl palmitate, reference compound], the LD50 is given as 8000 mg/kg. For `CCCCCC` [n-hexane], the LD50 is listed as 28700 mg/kg. In the case of `CCCCCCCCCCCCCC(=O)OC(C)C` [isopropylmyristate], the LD50 is listed as 8000 mg/kg. In the case of `CCCCCCCCCCCCCCCC(=O)OC(C)C` [isopropyl palmitate, reference compound], the LD50 is listed as 8000 mg/kg. For `CCCCCCCC(=O)OC` [methylcaprylate, reference compound], the LD50 is listed as 3000 mg/kg. For `CCO` [ethanol], the LD50 is listed as 20000 mg/kg. In the case of `CCOCCOC(=O)CCC(=O)OCCOCC` [diethoxy ethyl succinate], the LD50 is listed as 5000 mg/kg. In the case of `CCCCCCCCCCCC` [n-dodecane], the LD50 is listed as 20000 mg/kg.

Same assay, conditions: acute oral toxicity; listed as dimethyl silicone oil; cited from earlier work
In the case of dimethylsiloxane, the LD50 is listed as “not less than 15 g/kg”.
